Results as given in ChEMBL document CHEMBL5465560, “Selectivity Literature for EUbOPEN Chemogenomic Library” (2024).

Experiments:
[1] = biological target: Serine/threonine-protein kinase 33 (Homo sapiens) (UniProt Q9BYT3); assay: Selectivity interaction (KinomeScan (DiscoverX)) EUB0000655a STK33; settings: at 10 µM
[2] = test system: Epidermal growth factor receptor (Homo sapiens), P00533 [UNDEFINED MUTATION]; assay: Selectivity interaction (KinomeScan (DiscoverX)) EUB0001079a EGFR; settings: at 1 µM
[3] = biological target: T1, Testis-specific serine/threonine-protein kinase 3 (Homo sapiens) (UniProt Q96PN8); assay: Selectivity interaction (KinomeScan (DiscoverX)) EUB0001079a TSSK3; settings: at 1 µM
T1 sequence (whole entry): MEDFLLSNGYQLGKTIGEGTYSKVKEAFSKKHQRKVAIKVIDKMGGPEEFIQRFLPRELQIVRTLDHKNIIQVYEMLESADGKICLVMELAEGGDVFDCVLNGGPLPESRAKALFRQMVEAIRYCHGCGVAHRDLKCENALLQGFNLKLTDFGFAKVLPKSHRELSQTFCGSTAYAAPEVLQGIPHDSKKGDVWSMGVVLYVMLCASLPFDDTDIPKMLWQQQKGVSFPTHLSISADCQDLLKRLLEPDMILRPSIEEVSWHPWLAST

[4] = test system: Epidermal growth factor receptor (Homo sapiens), P00533 [UNDEFINED MUTATION]; assay: Selectivity interaction (KinomeScan (DiscoverX)) EUB0000607a EGFR; settings: at 10 µM
[5] = biological target: Receptor-type tyrosine-protein kinase FLT3 (Homo sapiens) (UniProt P36888); assay: Selectivity interaction (KinomeScan (DiscoverX)) EUB0001619a FLT3; settings: at 1 µM
[6] = biological target: STE20-like serine/threonine-protein kinase (Homo sapiens, UniProt Q9H2G2); assay: Selectivity interaction (Kinase panel (DSF assay)) EUB0001558a SLK
[7] = biological target: Death-associated protein kinase 1 (Homo sapiens, UniProt P53355); assay: Selectivity interaction (KinomeScan (DiscoverX)) EUB0000595a DAPK1; settings: at 10 µM
[8] = biological target: Fibroblast growth factor receptor 2 (Homo sapiens) (UniProt P21802); assay: Selectivity interaction (Upstate Kinase Profiler service (Millipore)) EUB0000056c FGFR2; settings: at 1 µM
[9] = biological target: Protein arginine N-methyltransferase 3 (Homo sapiens, UniProt O60678); settings: at 10 µM
[10] = biological target: Cyclin-dependent kinase 2/cyclin E (Homo sapiens, UniProt P24941); assay: Selectivity interaction (Enzyme panel (AstraZeneca, AlphaScreen, functional assay)) EUB0000621a CDK2; format: protein-complex assay
[11] = biological target: T2, cGMP-dependent protein kinase 1 (Homo sapiens) (UniProt Q13976); assay: Selectivity interaction (Kinase panel (Invitrogen)) EUB0000639a PRKG1; settings: at 200 nM
T2 sequence (whole entry): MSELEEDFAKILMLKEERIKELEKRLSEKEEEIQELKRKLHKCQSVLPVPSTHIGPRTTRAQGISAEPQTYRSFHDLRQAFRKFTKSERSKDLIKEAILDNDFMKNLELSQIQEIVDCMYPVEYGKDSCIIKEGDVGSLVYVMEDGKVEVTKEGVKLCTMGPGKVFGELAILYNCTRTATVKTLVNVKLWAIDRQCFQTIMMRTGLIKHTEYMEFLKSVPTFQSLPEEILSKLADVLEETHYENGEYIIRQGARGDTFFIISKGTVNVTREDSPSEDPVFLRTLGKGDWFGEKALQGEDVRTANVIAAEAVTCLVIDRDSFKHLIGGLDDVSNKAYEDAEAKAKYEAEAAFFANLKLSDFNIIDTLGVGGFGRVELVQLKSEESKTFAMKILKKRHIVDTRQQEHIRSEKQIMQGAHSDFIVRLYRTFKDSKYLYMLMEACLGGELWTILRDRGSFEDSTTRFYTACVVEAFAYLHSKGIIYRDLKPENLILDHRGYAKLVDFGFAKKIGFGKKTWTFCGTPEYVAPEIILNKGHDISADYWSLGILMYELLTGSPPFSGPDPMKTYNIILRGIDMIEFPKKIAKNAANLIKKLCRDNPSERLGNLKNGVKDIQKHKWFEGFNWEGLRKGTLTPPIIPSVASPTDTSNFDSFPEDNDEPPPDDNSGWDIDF

[12] = biological target: Serine/threonine-protein kinase WNK1 (Homo sapiens) (UniProt Q9H4A3); assay: Selectivity interaction (ActivX KiNativ screen (kinase selectivity in THP-1 cell lysates)) EUB0000639a WNK1; format: subcellular; settings: lysate, at 5 µM
[13] = biological target: Serine/threonine-protein kinase 26 (Homo sapiens, UniProt Q9P289)
[14] = biological target: Mitogen-activated protein kinase kinase kinase 20 (Homo sapiens) (UniProt Q9NYL2); assay: Selectivity interaction (ProQinase) EUB0000171b MAP3K20
[15] = biological target: Gastrin/cholecystokinin type B receptor (Homo sapiens, UniProt P32239); assay: Selectivity interaction (Cholecystokinin B receptor binding assay, human recombinant ) EUB0000877a CCKBR
[16] = biological target: Homeodomain-interacting protein kinase 1 (Homo sapiens, UniProt Q86Z02); assay: Selectivity interaction (KinomeScan (DiscoverX)) EUB0000666a HIPK1; settings: at 10 µM
[17] = biological target: T3, Dual specificity mitogen-activated protein kinase kinase 4 (Homo sapiens) (UniProt P45985); assay: Selectivity interaction (KinomeScan (DiscoverX)) EUB0000092b MAP2K4; settings: at 10 µM
T3 sequence (whole entry): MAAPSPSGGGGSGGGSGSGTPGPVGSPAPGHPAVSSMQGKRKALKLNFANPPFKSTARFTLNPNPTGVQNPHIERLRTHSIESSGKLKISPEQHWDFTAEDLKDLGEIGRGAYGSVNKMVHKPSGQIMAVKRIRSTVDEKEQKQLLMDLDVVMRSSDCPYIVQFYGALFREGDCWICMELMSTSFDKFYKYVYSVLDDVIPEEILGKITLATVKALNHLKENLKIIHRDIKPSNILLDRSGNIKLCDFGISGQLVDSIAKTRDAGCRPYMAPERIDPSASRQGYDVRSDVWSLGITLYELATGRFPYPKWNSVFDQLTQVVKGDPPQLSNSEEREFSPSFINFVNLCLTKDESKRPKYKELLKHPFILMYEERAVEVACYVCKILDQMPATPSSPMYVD

[18] = biological target: Platelet-derived growth factor receptor beta (Homo sapiens, UniProt P09619); assay: Selectivity interaction (Kinase panel (Carna Biosciences)) EUB0001542aTs PDGFRB; settings: at 1 µM
Chain of Platelet-derived growth factor receptor beta (P09619 whole entry): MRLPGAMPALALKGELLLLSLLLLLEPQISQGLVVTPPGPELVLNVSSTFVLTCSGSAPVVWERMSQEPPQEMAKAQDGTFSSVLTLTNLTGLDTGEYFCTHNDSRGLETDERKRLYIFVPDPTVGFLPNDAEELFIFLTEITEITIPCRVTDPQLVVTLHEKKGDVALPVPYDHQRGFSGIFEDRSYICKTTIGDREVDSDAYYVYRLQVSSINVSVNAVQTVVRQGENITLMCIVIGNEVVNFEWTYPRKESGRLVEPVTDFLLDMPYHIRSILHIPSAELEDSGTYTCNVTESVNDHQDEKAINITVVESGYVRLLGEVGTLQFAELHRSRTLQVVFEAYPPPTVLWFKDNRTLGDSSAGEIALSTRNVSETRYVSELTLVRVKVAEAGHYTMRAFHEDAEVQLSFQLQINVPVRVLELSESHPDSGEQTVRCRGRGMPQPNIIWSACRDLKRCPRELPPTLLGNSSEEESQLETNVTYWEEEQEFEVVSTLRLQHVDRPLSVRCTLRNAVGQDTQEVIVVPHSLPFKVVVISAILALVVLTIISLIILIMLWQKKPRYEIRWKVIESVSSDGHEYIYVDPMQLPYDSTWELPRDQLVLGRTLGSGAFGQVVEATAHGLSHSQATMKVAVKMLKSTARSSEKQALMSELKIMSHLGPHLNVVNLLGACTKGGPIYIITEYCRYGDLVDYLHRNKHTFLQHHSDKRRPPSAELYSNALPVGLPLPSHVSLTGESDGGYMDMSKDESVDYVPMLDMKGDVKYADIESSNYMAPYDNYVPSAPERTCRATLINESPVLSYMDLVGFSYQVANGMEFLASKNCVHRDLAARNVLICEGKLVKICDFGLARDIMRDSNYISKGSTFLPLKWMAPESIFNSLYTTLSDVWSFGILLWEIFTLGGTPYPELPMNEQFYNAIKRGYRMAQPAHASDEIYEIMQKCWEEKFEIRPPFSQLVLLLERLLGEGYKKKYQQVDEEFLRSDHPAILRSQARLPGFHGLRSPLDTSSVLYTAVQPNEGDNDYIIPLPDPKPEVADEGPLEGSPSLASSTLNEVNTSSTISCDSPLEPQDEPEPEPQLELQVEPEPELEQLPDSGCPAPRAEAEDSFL

Chain of Mitogen-activated protein kinase kinase kinase 20 (Homo sapiens) (Q9NYL2 2-800 limits assumed): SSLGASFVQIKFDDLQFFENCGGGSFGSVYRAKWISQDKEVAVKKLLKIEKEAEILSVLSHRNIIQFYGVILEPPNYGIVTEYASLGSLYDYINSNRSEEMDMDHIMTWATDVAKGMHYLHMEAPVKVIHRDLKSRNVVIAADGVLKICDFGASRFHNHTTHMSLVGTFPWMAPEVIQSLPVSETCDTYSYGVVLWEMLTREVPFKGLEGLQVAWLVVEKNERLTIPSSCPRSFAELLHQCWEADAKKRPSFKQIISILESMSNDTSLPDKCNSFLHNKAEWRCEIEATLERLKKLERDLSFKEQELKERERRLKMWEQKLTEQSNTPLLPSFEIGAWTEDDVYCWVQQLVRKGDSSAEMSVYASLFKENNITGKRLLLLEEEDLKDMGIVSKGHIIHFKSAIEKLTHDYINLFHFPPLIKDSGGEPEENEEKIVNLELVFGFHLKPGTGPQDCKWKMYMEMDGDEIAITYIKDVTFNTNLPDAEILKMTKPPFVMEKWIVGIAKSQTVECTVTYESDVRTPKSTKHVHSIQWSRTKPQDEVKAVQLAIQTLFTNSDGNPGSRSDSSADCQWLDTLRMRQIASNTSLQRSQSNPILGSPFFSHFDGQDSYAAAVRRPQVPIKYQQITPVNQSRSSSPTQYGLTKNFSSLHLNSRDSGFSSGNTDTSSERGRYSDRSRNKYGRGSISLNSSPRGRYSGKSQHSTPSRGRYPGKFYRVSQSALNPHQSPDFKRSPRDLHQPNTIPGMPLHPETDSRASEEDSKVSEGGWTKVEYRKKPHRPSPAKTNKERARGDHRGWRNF
Chain of Epidermal growth factor receptor (Homo sapiens), P00533 [UNDEFINED MUTATION] (P00533 whole entry, looked up, change not shown): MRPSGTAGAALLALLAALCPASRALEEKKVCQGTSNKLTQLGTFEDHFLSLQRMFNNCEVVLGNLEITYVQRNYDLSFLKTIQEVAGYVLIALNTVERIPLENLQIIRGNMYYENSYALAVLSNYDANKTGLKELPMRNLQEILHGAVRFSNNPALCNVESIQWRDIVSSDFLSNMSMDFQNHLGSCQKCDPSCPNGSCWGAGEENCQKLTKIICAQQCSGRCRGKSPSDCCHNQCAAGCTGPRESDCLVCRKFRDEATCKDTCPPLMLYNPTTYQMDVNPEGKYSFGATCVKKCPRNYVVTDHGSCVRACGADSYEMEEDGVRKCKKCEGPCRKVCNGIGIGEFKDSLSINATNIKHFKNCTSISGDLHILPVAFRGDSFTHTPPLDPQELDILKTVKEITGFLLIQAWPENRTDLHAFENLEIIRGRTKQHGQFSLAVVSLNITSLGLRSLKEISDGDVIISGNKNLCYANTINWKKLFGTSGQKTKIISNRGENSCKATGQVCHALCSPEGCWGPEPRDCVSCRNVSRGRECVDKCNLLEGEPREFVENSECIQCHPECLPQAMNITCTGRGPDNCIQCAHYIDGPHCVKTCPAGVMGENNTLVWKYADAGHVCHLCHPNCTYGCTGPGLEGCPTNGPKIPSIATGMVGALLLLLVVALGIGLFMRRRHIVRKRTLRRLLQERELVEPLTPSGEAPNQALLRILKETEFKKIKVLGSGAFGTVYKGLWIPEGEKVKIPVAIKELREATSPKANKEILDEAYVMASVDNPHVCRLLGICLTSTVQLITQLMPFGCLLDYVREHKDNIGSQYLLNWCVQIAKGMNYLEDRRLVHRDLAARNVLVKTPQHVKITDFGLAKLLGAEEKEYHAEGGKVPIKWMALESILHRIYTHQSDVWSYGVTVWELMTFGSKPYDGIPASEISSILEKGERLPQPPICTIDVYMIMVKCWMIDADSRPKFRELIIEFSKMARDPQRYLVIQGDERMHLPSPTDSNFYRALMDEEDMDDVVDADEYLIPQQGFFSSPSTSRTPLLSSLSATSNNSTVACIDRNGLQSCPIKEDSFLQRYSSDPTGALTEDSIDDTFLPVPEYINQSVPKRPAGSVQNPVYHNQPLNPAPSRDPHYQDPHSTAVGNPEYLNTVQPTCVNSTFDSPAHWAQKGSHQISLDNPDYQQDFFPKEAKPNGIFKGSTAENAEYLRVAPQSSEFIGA
Chain of STE20-like serine/threonine-protein kinase (Q9H2G2 whole entry, looked up): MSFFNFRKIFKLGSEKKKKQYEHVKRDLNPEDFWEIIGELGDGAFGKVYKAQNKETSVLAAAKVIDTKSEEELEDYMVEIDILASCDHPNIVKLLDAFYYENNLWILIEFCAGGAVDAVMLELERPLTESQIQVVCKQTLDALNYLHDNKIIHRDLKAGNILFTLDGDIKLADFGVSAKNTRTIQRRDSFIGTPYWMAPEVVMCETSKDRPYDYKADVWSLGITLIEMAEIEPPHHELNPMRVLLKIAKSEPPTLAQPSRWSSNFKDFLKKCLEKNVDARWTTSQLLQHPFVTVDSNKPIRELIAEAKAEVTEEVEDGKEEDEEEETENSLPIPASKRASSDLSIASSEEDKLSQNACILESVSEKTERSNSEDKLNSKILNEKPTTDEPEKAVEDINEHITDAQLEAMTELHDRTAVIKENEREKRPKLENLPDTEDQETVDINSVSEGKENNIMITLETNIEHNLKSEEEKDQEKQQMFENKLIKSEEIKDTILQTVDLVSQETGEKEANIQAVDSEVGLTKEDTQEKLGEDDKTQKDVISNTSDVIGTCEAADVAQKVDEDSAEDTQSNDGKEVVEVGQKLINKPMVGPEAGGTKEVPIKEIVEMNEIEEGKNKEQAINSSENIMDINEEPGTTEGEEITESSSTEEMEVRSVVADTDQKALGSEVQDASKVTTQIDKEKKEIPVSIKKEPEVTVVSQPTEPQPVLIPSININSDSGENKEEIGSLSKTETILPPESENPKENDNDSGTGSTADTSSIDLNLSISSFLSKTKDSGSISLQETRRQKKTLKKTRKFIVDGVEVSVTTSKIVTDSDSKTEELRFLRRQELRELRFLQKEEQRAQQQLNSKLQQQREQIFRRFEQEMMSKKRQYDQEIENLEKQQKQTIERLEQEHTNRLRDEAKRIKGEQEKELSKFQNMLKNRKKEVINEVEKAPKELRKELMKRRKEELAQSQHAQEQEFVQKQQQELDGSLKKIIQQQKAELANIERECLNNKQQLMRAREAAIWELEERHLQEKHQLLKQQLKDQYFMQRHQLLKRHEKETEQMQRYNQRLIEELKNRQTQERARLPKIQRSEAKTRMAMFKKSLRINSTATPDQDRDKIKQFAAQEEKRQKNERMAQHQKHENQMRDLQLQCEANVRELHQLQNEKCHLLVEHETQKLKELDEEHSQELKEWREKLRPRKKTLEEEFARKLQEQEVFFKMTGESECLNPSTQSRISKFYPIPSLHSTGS
Chain of Protein arginine N-methyltransferase 3 (O60678 2-531 limits assumed): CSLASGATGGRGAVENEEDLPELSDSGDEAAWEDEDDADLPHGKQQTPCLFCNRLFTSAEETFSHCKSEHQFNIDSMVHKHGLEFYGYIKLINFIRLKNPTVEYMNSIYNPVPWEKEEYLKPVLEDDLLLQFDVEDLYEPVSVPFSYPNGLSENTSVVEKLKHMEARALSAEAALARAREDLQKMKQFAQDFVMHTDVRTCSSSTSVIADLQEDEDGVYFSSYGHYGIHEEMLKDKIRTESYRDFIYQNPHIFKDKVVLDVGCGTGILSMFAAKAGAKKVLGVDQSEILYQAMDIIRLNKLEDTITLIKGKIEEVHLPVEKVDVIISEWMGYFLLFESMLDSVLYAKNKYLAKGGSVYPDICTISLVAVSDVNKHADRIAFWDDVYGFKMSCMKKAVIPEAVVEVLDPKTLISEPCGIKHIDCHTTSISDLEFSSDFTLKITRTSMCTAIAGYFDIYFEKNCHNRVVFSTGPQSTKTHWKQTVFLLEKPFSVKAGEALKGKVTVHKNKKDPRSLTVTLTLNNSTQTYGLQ

Question: `CN(C)CCOc1ccc(-c2nc(-c3ccncc3)c(-c3ccc4c(c3)CC/C4=N\O)[nH]2)cc1` was tested. Which % of control [1] did it give?
Answer: 88%

Question: What does the source list for `Nc1cnc(N2CCc3cc(S(=O)(=O)Nc4c(F)cc(Cl)cc4F)cc(N4CCCC4=O)c32)nc1` [TP-020n]?
Answer: % of control [2]: 71%; % of control [3]: 100%

Question: How did the % of control [4] turn out when `CNC(=O)Nc1ccc(-c2nc(N3CC4CCC(C3)O4)c3cnn(C4CCC5(CC4)OCCO5)c3n2)cc1` was run?
Answer: 55%

Question: With `N#Cc1cccc(-c2c[nH]c3ncnc(N4CCOCC4)c23)c1` as the compound, how does the % of control [5] read?
Answer: 92%

Question: With `CC(C)(O)[C@H](F)CN1Cc2cc(NC(=O)c3cnn4cccnc34)c(N3CCOCC3)cc2C1=O` as the compound, how does the dTM [6] read?
Answer: 1.7 K

Question: With `COCC(=O)NC/C=C/c1ccc2ncnc(Nc3ccc(Oc4ccc(C)nc4)c(C)c3)c2c1` [CP-724714] as the compound, how does the % of control [7] read?
Answer: 76%

Question: How did the % of inhibition [8] turn out when `Cc1ccc(-c2ccc3c(ccc4sc5c(c43)NC[C@@H](C)NC5=O)n2)cn1` was run?
Answer: -10%

Question: With `CNCCN1CCC(c2cc(CN(C)C(=O)c3cccc(Oc4ccccc4)c3)ccn2)CC1` as the compound, how does the % activity [9] read?
Answer: > 90%

Question: For `Cc1cc([C@@H](C)Nc2ccccc2C(=O)O)c2nc(N3CCOCC3)cc(=O)n2c1` [AZD-6482], which IC50 [10] is on record?
Answer: > 1000 µM

Question: What does the source list for `CC[C@@H]1[C@H](F)C(=O)N[C@@H]1COc1nccc2cc(C(N)=O)c(OC)cc12` [ZIMLOVISERTIB]?
Answer: % of inhibition [11]: 8.62%; % of inhibition [12]: -14.5%

Question: Which IC50 [13] does the source give for `CCc1cccc(CC)c1NC(=O)c1nn(C)c2c1CCc1cnc(Nc3ccc(C(=O)NC4CCN(C)CC4)cc3OC(F)(F)F)nc1-2` here?
Answer: > 10 µM

Question: Which results are given for `C=CC(=O)Nc1cccc(C(=O)Nc2ccc(Nc3cc(-c4[nH]c(SC)nc4C)ccn3)cc2)c1`?
Answer: % of control ([14]; at 1 µM): 48%; % of control ([14]; at 5 µM): 15%

Question: For `CCC(=O)N1CC[C@H](Nc2ncnc3c2CN(c2cnc(OC)c(C(F)(F)F)c2)CC3)C1` [LENIOLISIB], which IC50 [15] is on record?
Answer: > 30 µM

Question: For `O=C(NOC[C@H](O)CO)c1ccc(F)c(F)c1Nc1ccc(I)cc1F`, which % of control [16] is on record?
Answer: 91%

Question: `CCC(=O)N1CCN(c2ccc(-n3c(=O)ccc4cnc5ccc(-c6cnc7ccccc7c6)cc5c43)cc2C(F)(F)F)CC1` was tested. Which % of control [17] did it give?
Answer: 30%

Question: `Cn1cc(Nc2nccc(N3CC4CCC(C3)N4C(=O)[C@@H]3CC3(F)F)n2)cn1` was tested. Which % of inhibition [18] did it give?
Answer: 66%
